# Counter-ions that a name gives are not always drawn. ± gives the standard deviation of the averaged measurements.
# Tested on: CHO-K1
# Experiment: benchmark concentration for 30% increase in micronucleus frequency (BMC30); higher = less potent clastogen
# Settings: S9 metabolic activation: with S9
# Protocol: (§1)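 Benchmark concentration modelling (PROAST, Hill/exponential model families) of the 19-concentration flow-cytometric micronucleus assay in CHO-K1 cells, with and without rat liver S9. Only non-cytotoxic and adequate (relative survival >=40%) concentrations were used. BMR was a 30% increase in %MN (BMC30) or a 60% increase in %hypodiploid (BMC60) over control.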
row,SMILES,benchmark concentration
1,c1ccc2c(c1)oc1ccccc12 [Dibenzofuran],33 µM
2,CCOC(N)=O [Urethane],32 µM
3,"O=c1[nH]sc2ccccc12 [1,2-Benzisothiazolin-3-one]",32 µM

# Same assay, conditions: S9 metabolic activation: without S9
row,SMILES,benchmark concentration
1,CCC(C)c1cc([N+](=O)[O-])cc([N+](=O)[O-])c1O (stereo unspecified) [Dinoseb],49 µM
2,CCOC(=O)C(O)(c1ccc(Cl)cc1)c1ccc(Cl)cc1 [Chlorobenzilate],47 µM
3,O=C(O)c1cc(/N=N/c2ccc(S(=O)(=O)Nc3ccccn3)cc2)ccc1O [Sulfasalazine],65 µM

# Tested on: CHO-K1
# Experiment: benchmark concentration for 60% increase in hypodiploid frequency (BMC60); higher = less potent aneugen
# Settings: S9 metabolic activation: with S9
# Protocol: as §1
row,SMILES,benchmark concentration
1,COC(=O)Nc1nc2ccccc2[nH]1 [Carbendazim],32 µM
2,Nc1cc(Cl)cc(C(=O)O)c1Cl [Chloramben],9.7 µM
3,CN(C)[C@@H]1C(=O)C(C(N)=O)=C(O)[C@@]2(O)C(=O)C3=C(O)c4c(O)cccc4[C@@](C)(O)[C@H]3[C@H](O)[C@@H]12 [Oxytetracycline hydrochloride],110 µM

# Same assay, conditions: S9 metabolic activation: without S9
row,SMILES,benchmark concentration
1,COC(=O)Nc1nc2ccccc2[nH]1 [Carbendazim],< 4.5 µM
2,Nc1cc(Cl)cc(C(=O)O)c1Cl [Chloramben],110 µM
3,"c1ccc2occc2c1 [2,3-Benzofuran]",61 µM
4,Oc1ccc(Cl)cc1Cc1ccccc1 [Clorophene],34 µM
5,COC(=O)c1ccccc1C(=O)OC [Dimethyl phthalate],120 µM
6,Cl[C@H]1[C@H](Cl)[C@@H](Cl)[C@H](Cl)[C@@H](Cl)[C@@H]1Cl [beta-Hexachlorocyclohexane],32 µM
7,CC(C)C(=O)Nc1ccc([N+](=O)[O-])c(C(F)(F)F)c1 [Flutamide],17 µM
8,Cc1cn(C2CC(N=[N+]=[N-])C(CO)O2)c(=O)[nH]c1=O (stereo unspecified) [3-Azido-3-deoxythymidine],72 µM
9,"Nc1ccccc1N [1,2-Phenylenediamine]",47 µM
10,CC(C)NCC(O)c1ccc(O)c(O)c1 (stereo unspecified) [Isoproterenol hydrochloride],110 µM
11,CCCCCCc1ccc(O)cc1O [4-Hexylresorcinol],< 4.5 µM
12,CC(=O)c1ccccc1 [Acetophenone],50 µM
13,OCCNCCO [Diethanolamine],84 µM
14,"CCN(CC)c1ccccc1 [N,N-Diethylaniline]",77 µM
15,"Cc1ccc(N)c(N)c1 [3,4-Diaminotoluene]",52 µM
16,CSC(C)(C)/C=N/O [Aldicarb oxime],40 µM
17,"CC(C)(C)OOC(C)(C)CCC(C)(C)OOC(C)(C)C [2,5-Dimethyl-2,5-di-(tert-butylperoxy)hexane]",60 µM
18,CCCCC(CC)CO (stereo unspecified) [2-Ethyl-1-hexanol],56 µM
19,"Cc1ccc(N(C)C)cc1 [N,N,4-Trimethylaniline]",39 µM
20,Cc1c(C(=O)O)c(O)cc2c1C(=O)c1c(O)c([C@@H]3O[C@H](CO)[C@@H](O)[C@H](O)[C@H]3O)c(O)c(O)c1C2=O [Carminic acid],13 µM
21,O=P(OCCCl)(OCCCl)OCCCl [Tris(2-chloroethyl) phosphate],150 µM
22,NC(=O)N1c2ccccc2C=Cc2ccccc21 [Carbamazepine],110 µM

row,SMILES,benchmark concentration
1,"Clc1cc(Cl)c(Cl)cc1Cl [1,2,4,5-Tetrachlorobenzene]",110 µM
2,CCCCCCCCCCO [1-Decanol],120 µM
3,"Clc1cccc(Cl)c1Cl [1,2,3-Trichlorobenzene]",32 µM
4,Cc1occc(=O)c1O [Maltol],100 µM
5,CC(=O)OCCC(C)C [3-Methylbutyl acetate],13 µM
6,CCCCCCCCCC(=O)O [Decanoic acid],30 µM
7,O=[N+]([O-])c1ccc(Cl)cc1 [1-Chloro-4-nitrobenzene],120 µM
8,Oc1ccccc1Cl [2-Chlorophenol],97 µM
9,COc1cc(C=O)ccc1O [4-Hydroxy-3-methoxybenzaldehyde],53 µM
10,"Cc1ccc([N+](=O)[O-])cc1C [1,2-Dimethyl-4-nitrobenzene]",89 µM
11,CC/C(=C(/CC)c1ccc(O)cc1)c1ccc(O)cc1 [Diethylstilbestrol],4.8 µM
12,"Clc1cccc(Cl)c1 [1,3-Dichlorobenzene]",160 µM
13,CN(C)C(=S)S [Sodium dimethyldithiocarbamate],49 µM
14,COc1ccc([N+](=O)[O-])cc1N [2-Methoxy-5-nitroaniline],90 µM
15,CC(=O)Nc1ccc(O)cc1 [Acetaminophen],36 µM
16,CC(C)COC(=O)c1ccccc1C(=O)OCC(C)C [Diisobutyl phthalate],32 µM
17,O=NO [Sodium nitrite],77 µM
18,O=c1c(O)c(-c2ccc(O)c(O)c2)oc2cc(O)cc(O)c12 [Quercetin],110 µM
19,Cc1ccc(C(C)C)c(O)c1 [Thymol],100 µM
20,Cc1ccc(Cl)cc1 [4-Chlorotoluene],60 µM
21,"CC1(C)C(=O)N(Br)C(=O)N1Br [1,3-Dibromo-5,5-dimethylhydantoin]",93 µM
22,O=c1[nH]c(=O)[nH]c(=O)[nH]1 [Cyanuric acid],91 µM

row,SMILES,benchmark concentration
1,"O=C=NCCCCCCN=C=O [1,6-Diisocyanatohexane]",100 µM
2,CCc1cccc(C)c1N(C(=O)CCl)C(C)COC (stereo unspecified) [Metolachlor],180 µM
3,O=S(=O)(O)c1ccc(N=Nc2c(O)ccc3cc(S(=O)(=O)O)ccc23)cc1 [FD&C Yellow 6],13 µM
4,"Cc1cccc(C)c1N [2,6-Dimethylaniline]",87 µM
5,Cc1c(C)c2c(c(C)c1O)CCC(C)(COc1ccc(CC3SC(=O)NC3=O)cc1)O2 (stereo unspecified) [Troglitazone],14 µM
6,C/C=C\c1ccc(O)c(OC)c1 [Isoeugenol],72 µM
7,"C[C@]12CCC(=O)C=C1CC[C@@H]1[C@@H]2CC[C@]2(C)C(=O)CC[C@@H]12 [4-Androstene-3,17-dione]",34 µM
8,COC(=O)c1ccccc1N [Methyl 2-aminobenzoate],77 µM
9,O=C(O)C(F)(F)C(F)(F)C(F)(F)C(F)(F)C(F)(F)C(F)(F)C(F)(F)F [PFOA],6.7 µM
10,"Clc1ccc(Cl)c(Cl)c1 [1,2,4-Trichlorobenzene]",100 µM
11,ClC(Cl)c1ccccc1 [Benzal chloride],91 µM
12,CCCCOCCOCCO [2-(2-Butoxyethoxy)ethanol],100 µM
13,"Nc1ccc(Cc2ccc(N)cc2)cc1 [4,4'-Methylenedianiline]",74 µM
14,CC(C)=CCCC(C)CCO (stereo unspecified) [Citronellol],72 µM
15,CCc1nc(N)nc(N)c1-c1ccc(Cl)cc1 [Pyrimethamine],49 µM
16,Oc1c(Cl)c(Cl)c(Cl)c(Cl)c1Cl [Pentachlorophenol],9 µM
17,"OCCC(F)(F)C(F)(F)C(F)(F)C(F)(F)C(F)(F)C(F)(F)C(F)(F)C(F)(F)F [1,1,2,2-Tetrahydroperfluoro-1-decanol]",95 µM
18,C/C=C/c1ccc(OC)cc1 [(E)-Anethole],35 µM
19,"CN(C)c1ccccc1 [N,N-Dimethylaniline]",43 µM
20,"CC(C)=CCC/C(C)=C/C=O [3,7-Dimethyl-2,6-octadienal]",28 µM
21,O=C(Nc1ccc(Cl)cc1)Nc1ccc(Cl)c(Cl)c1 [Triclocarban],< 4.5 µM
22,"OC(CCl)CCl [1,3-Dichloro-2-propanol]",75 µM

row,SMILES,benchmark concentration
1,Cc1ccc(N)cc1O [5-Amino-2-methylphenol],5.3 µM
2,O=c1ccc2ccccc2o1 [Coumarin],9.7 µM
3,ClC1=C(Cl)C2(Cl)C3C(Cl)C(Cl)CC3C1(Cl)C2(Cl)Cl (stereo unspecified) [Chlordane],54 µM
4,"COc1cc(-c2ccc(N)c(OC)c2)ccc1N [3,3'-Dimethoxybenzidine dihydrochloride]",7.6 µM
5,Nc1ccc(S(=O)(=O)c2ccc(N)cc2)cc1 [Dapsone],39 µM
6,ClC(Cl)(Cl)c1ccccc1 [Benzotrichloride],45 µM
7,Cc1ccccc1O [o-Cresol],130 µM
8,OC(Cn1cncn1)(Cn1cncn1)c1ccc(F)cc1F [Fluconazole],90 µM
9,COC(=O)CCCCC(=O)OC [Dimethyl adipate],110 µM
10,"CC(C)C(=O)OCC(C)(C)C(OC(=O)C(C)C)C(C)C (stereo unspecified) [2,2,4-Trimethyl-1,3-pentanediol diisobutyrate]",190 µM
11,COCCOCCO [Diethylene glycol monomethyl ether],90 µM
12,CCN(CC)C(=O)SCc1ccc(Cl)cc1 [Thiobencarb],113 ± 110 µM
13,c1ccc2[nH]c(-c3cscn3)nc2c1 [Thiabendazole],14.1 ± 7 µM
14,Nc1ccc(C(=O)O)cc1 [4-Aminobenzoic acid],110 µM
15,"c1ccc2n[nH]nc2c1 [1,2,3-Benzotriazole]",93 µM
16,CCOC(=O)C(C)(C)Oc1ccc(Cl)cc1 [Clofibrate],130 µM
17,ClC1=C(Cl)C2(Cl)C3C4CC(C5OC45)C3C1(Cl)C2(Cl)Cl (stereo unspecified) [Endrin],< 4.5 µM
18,C1CC2OC2CC1C1CO1 (stereo unspecified) [4-Vinyl-1-cyclohexene dioxide],35 µM
19,c1ccc2cc3ccccc3cc2c1 [Anthracene],51 µM
20,O=[N+]([O-])c1ccccc1 [Nitrobenzene],26 µM
21,O=C(O)c1ccccc1 [Benzoic acid],110 µM
